Data as given in PubChem BioAssay AID1259407 (Chemical Carcinogenesis Research Information System (CCRIS), 2018).
The source made the active and inactive calls. No rule for the calls is given here.

Test system: CCRIS mutagenicity, Ames/micronucleus/aberration tests
Experiment: CCRIS mutagenicity studies
[1] = Test System: AMES SALMONELLA TYPHIMURIUM, Strain/Indicator: TA98, Metabolic Activation: HAMSTER, LIVER, S-9, AROCLOR 1254 (10%), Method: PREINCUBATION
[2] = Test System: AMES SALMONELLA TYPHIMURIUM, Strain/Indicator: TA98, Metabolic Activation: NONE, Method: PREINCUBATION
[3] = Test System: AMES SALMONELLA TYPHIMURIUM, Strain/Indicator: TA98, Metabolic Activation: RAT, LIVER, S-9, AROCLOR 1254 (10%), Method: PREINCUBATION
[4] = Test System: AMES SALMONELLA TYPHIMURIUM, Strain/Indicator: TA100, Metabolic Activation: HAMSTER, LIVER, S-9, AROCLOR 1254 (10%), Method: PREINCUBATION
[5] = Test System: AMES SALMONELLA TYPHIMURIUM, Strain/Indicator: TA100, Metabolic Activation: NONE, Method: PREINCUBATION
[6] = Test System: AMES SALMONELLA TYPHIMURIUM, Strain/Indicator: TA1535, Metabolic Activation: NONE, Method: PREINCUBATION
[7] = Test System: AMES SALMONELLA TYPHIMURIUM, Strain/Indicator: TA100, Metabolic Activation: RAT, LIVER, S-9, AROCLOR 1254, Method: PREINCUBATION

With `O=C1OC(=O)c2ccccc21` as the molecule, how does the mutagenic call (End Point: IN VITRO CHROMOSOMAL ABERRATIONS, Test System: CHINESE HAMSTER OVARY CELLS, Metabolic Activation: NONE) read?
Its mutagenic call is “inactive; negative”.

What about the mutagenic call (End Point: IN VITRO CHROMOSOMAL ABERRATIONS, Test System: CHINESE HAMSTER OVARY CELLS, Metabolic Activation: RAT, LIVER, S-9, AROCLOR 1254) of the same molecule?
Its mutagenic call is “inactive; negative”.

What about the mutagenic call (End Point: IN VITRO CHROMOSOMAL ABERRATIONS, Test System: CHO CELLS, Metabolic Activation: NONE) of the same molecule?
The mutagenic call was “active; positive; precipitation occurred at 10 mm”.

And the mutagenic call [1]?
The mutagenic call was “inactive; negative”.

What about the mutagenic call [2] of the same molecule?
The mutagenic call was “inactive; negative”.

And the mutagenic call (Test System: AMES SALMONELLA TYPHIMURIUM, Strain/Indicator: TA98, Metabolic Activation: RAT LIVER S-9, PHENOBARBITAL AND BETA-NAPHTHOFLAVONE, Method: PREINCUBATION)?
The mutagenic call was “inactive; negative”.

What about the mutagenic call [3] of the same molecule?
Its mutagenic call is “inactive; negative”.

And the mutagenic call [4]?
The mutagenic call was “inactive; negative”.

What about the mutagenic call [5] of the same molecule?
Its mutagenic call is “inactive; negative”.

What about the mutagenic call (Test System: AMES SALMONELLA TYPHIMURIUM, Strain/Indicator: TA100, Metabolic Activation: RAT LIVER S-9, PHENOBARBITAL AND BETA-NAPHTHOFLAVONE, Method: PREINCUBATION) of the same molecule?
The mutagenic call was “inactive; negative”.

And the mutagenic call (Test System: AMES SALMONELLA TYPHIMURIUM, Strain/Indicator: TA100, Metabolic Activation: RAT, LIVER, S-9, AROCLOR 1254 (10%), Method: PREINCUBATION)?
The mutagenic call was “inactive; negative”.

What about the mutagenic call (Test System: AMES SALMONELLA TYPHIMURIUM, Strain/Indicator: TA1535, Metabolic Activation: HAMSTER, LIVER, S-9, AROCLOR 1254 (10%), Method: PREINCUBATION) of the same molecule?
Its mutagenic call is “inactive; negative”.

What about the mutagenic call [6] of the same molecule?
Its mutagenic call is “inactive; negative”.

What about the mutagenic call (Test System: AMES SALMONELLA TYPHIMURIUM, Strain/Indicator: TA1535, Metabolic Activation: RAT LIVER S-9, PHENOBARBITAL AND BETA-NAPHTHOFLAVONE, Method: PREINCUBATION) of the same molecule?
The mutagenic call was “inactive; negative”.

And the mutagenic call (Test System: AMES SALMONELLA TYPHIMURIUM, Strain/Indicator: TA1535, Metabolic Activation: RAT, LIVER, S-9, AROCLOR 1254 (10%), Method: PREINCUBATION)?
The mutagenic call was “inactive; negative”.

What about the mutagenic call (Test System: AMES SALMONELLA TYPHIMURIUM, Strain/Indicator: TA1537, Metabolic Activation: HAMSTER, LIVER, S-9, AROCLOR 1254 (10%), Method: PREINCUBATION) of the same molecule?
The mutagenic call was “inactive; negative”.

What about the mutagenic call (Test System: AMES SALMONELLA TYPHIMURIUM, Strain/Indicator: TA1537, Metabolic Activation: NONE, Method: PREINCUBATION) of the same molecule?
Its mutagenic call is “inactive; negative”.

And the mutagenic call (Test System: AMES SALMONELLA TYPHIMURIUM, Strain/Indicator: TA1537, Metabolic Activation: RAT LIVER S-9, PHENOBARBITAL AND BETA-NAPHTHOFLAVONE, Method: PREINCUBATION)?
Its mutagenic call is “inactive; negative”.

And the mutagenic call (Test System: AMES SALMONELLA TYPHIMURIUM, Strain/Indicator: TA1537, Metabolic Activation: RAT, LIVER, S-9, AROCLOR 1254 (10%), Method: PREINCUBATION)?
The mutagenic call was “inactive; negative”.

What about the mutagenic call (Test System: E.COLI, Strain/Indicator: WP2UVRA, Metabolic Activation: NONE, Method: PREINCUBATION) of the same molecule?
Its mutagenic call is “inactive; negative”.

And the mutagenic call (Test System: E.COLI, Strain/Indicator: WP2UVRA, Metabolic Activation: RAT LIVER S-9, PHENOBARBITAL AND BETA-NAPHTHOFLAVONE, Method: PREINCUBATION)?
Its mutagenic call is “inactive; negative”.

How did the mutagenic call [7] turn out when `Oc1ccc2cc3c4ccccc4c4ccccc4c3cc2c1O` was run?
The mutagenic call was “active; positive”.

With `CCc1c2ccccc2cc2ccc3ccccc3c12` as the molecule, how does the mutagenic call (Test System: AMES SALMONELLA TYPHIMURIUM, Strain/Indicator: TA98, Method: STANDARD PLATE) read?
Its mutagenic call is “inactive; negative”.

And the mutagenic call (Test System: AMES SALMONELLA TYPHIMURIUM, Strain/Indicator: TA100, Metabolic Activation: RAT, LIVER, S-9, PHENOBARBITAL, Method: STANDARD PLATE)?
The mutagenic call was “inactive; negative”.

What about the mutagenic call (Test System: AMES SALMONELLA TYPHIMURIUM, Strain/Indicator: TA100, Method: STANDARD PLATE) of the same molecule?
The mutagenic call was “inactive; negative”.

For `Cc1ccc2cc3c(cc2c1)-c1cccc2cccc-3c12`, which mutagenic call (Test System: AMES SALMONELLA TYPHIMURIUM, Strain/Indicator: TA100, Metabolic Activation: RAT, LIVER, S-9, AROCLOR 1254) is on record?
Its mutagenic call is “active; positive”.

For `[Cl-].[Cl-].[NH2-].[NH2-].[NH2-].[NH2-].[Pt+2]`, which mutagenic call [2] is on record?
Its mutagenic call is “inactive; negative”.

What about the mutagenic call (Test System: AMES SALMONELLA TYPHIMURIUM, Strain/Indicator: TA98, Metabolic Activation: RAT, LIVER, S-9, AROCLOR 1254, Method: PREINCUBATION) of the same molecule?
The mutagenic call was “inactive; negative”.

What about the mutagenic call [5] of the same molecule?
Its mutagenic call is “inactive; negative”.

And the mutagenic call [7]?
Its mutagenic call is “inactive; negative”.

What does the source list for `C[C@@H](CN=[N+]=[N-])c1ccccc1`?
mutagenic call [5]: inactive; negative; mutagenic call (Test System: AMES SALMONELLA TYPHIMURIUM, Strain/Indicator: TA100, Metabolic Activation: RAT, LIVER, S-9, PCB, Method: PREINCUBATION): active; positive

Which mutagenic call [5] does the source give for `CCOC(=O)N(CCCC(=O)c1cccnc1)N=O` here?
The mutagenic call was “active; positive”.

What does the source list for `O=CNc1ccc(Oc2c(Cl)cc(Cl)cc2Cl)cc1`?
mutagenic call (Test System: AMES SALMONELLA TYPHIMURIUM, Strain/Indicator: TA100, Metabolic Activation: NONE, Method: STANDARD PLATE): inactive; negative; mutagenic call (Test System: AMES SALMONELLA TYPHIMURIUM, Strain/Indicator: TA100, Metabolic Activation: RAT, LIVER, S-9, KANECLOR 500, Method: STANDARD PLATE): active; positive

How did the mutagenic call (Test System: AMES SALMONELLA TYPHIMURIUM, Strain/Indicator: TA97, Metabolic Activation: HAMSTER, LIVER, S-9, AROCLOR 1254 (10 OR 30%), Method: PREINCUBATION) turn out when `NO` was run?
Its mutagenic call is “inactive; negative”.

What about the mutagenic call (Test System: AMES SALMONELLA TYPHIMURIUM, Strain/Indicator: TA97, Metabolic Activation: NONE, Method: PREINCUBATION) of the same molecule?
The mutagenic call was “inactive; negative”.

And the mutagenic call (Test System: AMES SALMONELLA TYPHIMURIUM, Strain/Indicator: TA97, Metabolic Activation: RAT, LIVER, S-9, AROCLOR 1254 (10 OR 30%), Method: PREINCUBATION)?
The mutagenic call was “inactive; negative”.

And the mutagenic call [1]?
The mutagenic call was “inactive; negative”.

What about the mutagenic call (Test System: AMES SALMONELLA TYPHIMURIUM, Strain/Indicator: TA98, Metabolic Activation: HAMSTER, LIVER, S-9, AROCLOR 1254 (30%), Method: PREINCUBATION) of the same molecule?
Its mutagenic call is “inactive; negative”.

What about the mutagenic call [2] of the same molecule?
Its mutagenic call is “inactive; negative”.

What about the mutagenic call [3] of the same molecule?
Its mutagenic call is “inactive; negative”.

And the mutagenic call (Test System: AMES SALMONELLA TYPHIMURIUM, Strain/Indicator: TA98, Metabolic Activation: RAT, LIVER, S-9, AROCLOR 1254 (30%), Method: PREINCUBATION)?
The mutagenic call was “inactive; negative”.

And the mutagenic call [4]?
The mutagenic call was “inactive; negative”.

What about the mutagenic call (Test System: AMES SALMONELLA TYPHIMURIUM, Strain/Indicator: TA100, Metabolic Activation: HAMSTER, LIVER, S-9, AROCLOR 1254 (30%), Method: PREINCUBATION) of the same molecule?
Its mutagenic call is “inactive; negative”.

And the mutagenic call [5]?
The mutagenic call was “inactive; negative”.

What about the mutagenic call (Test System: AMES SALMONELLA TYPHIMURIUM, Strain/Indicator: TA100, Metabolic Activation: RAT, LIVER, S-9, AROCLOR 1254 (10 OR 30%), Method: PREINCUBATION) of the same molecule?
Its mutagenic call is “inactive; negative”.

And the mutagenic call (Test System: AMES SALMONELLA TYPHIMURIUM, Strain/Indicator: TA102, Metabolic Activation: RAT, LIVER, S-9, AROCLOR 1254, Method: STANDARD PLATE)?
Its mutagenic call is “inactive; negative”.

And the mutagenic call (Test System: AMES SALMONELLA TYPHIMURIUM, Strain/Indicator: TA1535, Metabolic Activation: HAMSTER, LIVER, S-9, AROCLOR 1254 (10 OR 30%), Method: PREINCUBATION)?
Its mutagenic call is “inactive; negative”.

And the mutagenic call [6]?
The mutagenic call was “inactive; negative”.

What about the mutagenic call (Test System: AMES SALMONELLA TYPHIMURIUM, Strain/Indicator: TA1535, Metabolic Activation: RAT, LIVER, S-9, AROCLOR 1254 (10 OR 30%), Method: PREINCUBATION) of the same molecule?
Its mutagenic call is “inactive; negative”.

What about the mutagenic call (Test System: MOUSE LYMPHOMA, Strain/Indicator: L5178Y (TK+/TK-), Metabolic Activation: NONE, Method: SUSPENSION/PLATE) of the same molecule?
Its mutagenic call is “active; positive”.

What about the mutagenic call (Test System: MOUSE LYMPHOMA, Strain/Indicator: L5178Y (TK+/TK-), Metabolic Activation: RAT, LIVER, S-9, AROCLOR 1254, Method: SUSPENSION/PLATE) of the same molecule?
The mutagenic call was “active; positive”.

For `CC1=CC(=O)c2c(O)c3c(c(O)c2C1=O)C1C(O)C(C3=O)C23C(=O)c4c(O)c(C)cc(O)c4C(O)=C2C(=O)CC(O)C13` (centres undefined), which mutagenic call (Test System: UDS RODENT HEPATOCYTES, Strain/Indicator: THY INCORP, Metabolic Activation: NONE, Method: AUTORADIOGRAPHY) is on record?
The mutagenic call was “inactive; negative”.
